Assay results taken from ChEMBL document CHEMBL3885861, “Open TG-GATES”.

Species on record: Rattus norvegicus
Experiment: Open TG-GATES - Regimen: Single
Type: toxicity, organism-based, Sprague-Dawley
Design: regimen Single, gender Male, age 6 weeks
Conditions: in vivo, po, route gavage; for APTT / Bas / Eos / Fbg / Hb / Ht / Lym / MCH / MCHC / MCV / Mono / Neu / PT / Plat / RBC / Ret / WBC: tissue Blood; for KIDNEY_L / KIDNEY_R / KIDNEY_TOTAL: tissue Kidney; for LIVER: tissue Liver; for A/G / ALP / ALT / AST / BUN / CRE / Ca / Cl / DBIL / GLC / IP / K / LDH / Na / PL / RALB / TBIL / TC / TG / TP / gamma-GTP: tissue Plasma
[1] = 150 mg/kg, 3 h, dose level Middle
[2] = 150 mg/kg, 6 h, dose level Middle
[3] = 150 mg/kg, 9 h, dose level Middle
[4] = 150 mg/kg, 24 h, dose level Middle
[5] = 500 mg/kg, 3 h, dose level High
[6] = 500 mg/kg, 6 h, dose level High
[7] = 500 mg/kg, 9 h, dose level High
[8] = 500 mg/kg, 24 h, dose level High

## CN1C(=O)OC(C)(C)C1=O [TRIMETHADIONE]
[1]
  TERMINAL_BW: 208.1 g
  APTT: 15.9 s
  Bas: 0%
  Eos: 0.6%
  Fbg: 262.2 mg/dL
  Hb: 13.4 g/dL
  Ht: 40.4%
  Lym: 78.8%
  MCH: 21.4 pg
  MCHC: 33.2%
  MCV: 64.6 fL
  Mono: 2.4%
  Neu: 17.2%
  PT: 13.5 s
  Plat: 114.9 x10_4/uL
  RBC: 625.4 x10_4/ul
  Ret: 7.7%
  WBC: 81.5 x10_2/uL
  KIDNEY_L: 0.9 g
  KIDNEY_R: 0.9 g
  KIDNEY_TOTAL: 1.8 g
  LIVER: 9.1 g
  A/G: 0.9
  ALP: 1472.2 IU/L
  ALT: 38.4 IU/L
  AST: 70.6 IU/L
  BUN: 10 mg/dL
  CRE: 0.2 mg/dL
  Ca: 10.6 mg/dL
  Cl: 108 meq/L
  DBIL: 0.004 mg/dL
  GLC: 177.8 mg/dL
  IP: 8.3 mg/dL
  K: 4.2 meq/L
  LDH: 106 IU/L
  Na: 141 meq/L
  PL: 144.4 mg/dL
  RALB: 2.5 g/dL
  TBIL: 0.056 mg/dL
  TC: 75 mg/dL
  TG: 82 mg/dL
  TP: 5.3 g/dL
  gamma-GTP: 1 IU/L
[2]
  TERMINAL_BW: 209 g
  APTT: 16.3 s
  Bas: 0.2%
  Eos: 1%
  Fbg: 267 mg/dL
  Hb: 13.4 g/dL
  Ht: 40.1%
  Lym: 80.8%
  MCH: 21.7 pg
  MCHC: 33.3%
  MCV: 65.3 fL
  Mono: 2.4%
  Neu: 15.2%
  PT: 13.8 s
  Plat: 126.8 x10_4/uL
  RBC: 614.2 x10_4/ul
  Ret: 8.4%
  WBC: 94.5 x10_2/uL
  KIDNEY_L: 0.9 g
  KIDNEY_R: 0.9 g
  KIDNEY_TOTAL: 1.8 g
  LIVER: 8.6 g
  A/G: 0.9
  ALP: 1642.2 IU/L
  ALT: 36.2 IU/L
  AST: 72.2 IU/L
  BUN: 8.6 mg/dL
  CRE: 0.2 mg/dL
  Ca: 10.6 mg/dL
  Cl: 107.4 meq/L
  DBIL: 0.004 mg/dL
  GLC: 175.8 mg/dL
  IP: 8.9 mg/dL
  K: 4.3 meq/L
  LDH: 79.4 IU/L
  Na: 140.6 meq/L
  PL: 139.4 mg/dL
  RALB: 2.4 g/dL
  TBIL: 0.062 mg/dL
  TC: 76 mg/dL
  TG: 54.6 mg/dL
  TP: 5.2 g/dL
  gamma-GTP: 1 IU/L
[3]
  TERMINAL_BW: 204.4 g
  APTT: 17.8 s
  Bas: 0%
  Eos: 1%
  Fbg: 276 mg/dL
  Hb: 13.2 g/dL
  Ht: 39.8%
  Lym: 76%
  MCH: 21.7 pg
  MCHC: 33.2%
  MCV: 65.5 fL
  Mono: 2.2%
  Neu: 20.8%
  PT: 14 s
  Plat: 119.5 x10_4/uL
  RBC: 608.8 x10_4/ul
  Ret: 8.3%
  WBC: 84 x10_2/uL
  KIDNEY_L: 0.9 g
  KIDNEY_R: 0.9 g
  KIDNEY_TOTAL: 1.8 g
  LIVER: 7.8 g
  A/G: 0.9
  ALP: 1417.8 IU/L
  ALT: 33.8 IU/L
  AST: 72.2 IU/L
  BUN: 7.2 mg/dL
  CRE: 0.2 mg/dL
  Ca: 10.3 mg/dL
  Cl: 109.8 meq/L
  DBIL: 0 mg/dL
  GLC: 164.4 mg/dL
  IP: 9.9 mg/dL
  K: 3.9 meq/L
  LDH: 118.2 IU/L
  Na: 142.4 meq/L
  PL: 137.4 mg/dL
  RALB: 2.5 g/dL
  TBIL: 0.066 mg/dL
  TC: 74.4 mg/dL
  TG: 32.4 mg/dL
  TP: 5.3 g/dL
  gamma-GTP: 1 IU/L
[4]
  TERMINAL_BW: 217.7 g
  APTT: 20.8 s
  Bas: 0%
  Eos: 1%
  Fbg: 279.8 mg/dL
  Hb: 13.8 g/dL
  Ht: 41.1%
  Lym: 78.2%
  MCH: 21.7 pg
  MCHC: 33.5%
  MCV: 64.9 fL
  Mono: 2.6%
  Neu: 18%
  PT: 13.4 s
  Plat: 112.6 x10_4/uL
  RBC: 634.2 x10_4/ul
  Ret: 6.8%
  WBC: 104 x10_2/uL
  KIDNEY_L: 0.9 g
  KIDNEY_R: 0.9 g
  KIDNEY_TOTAL: 1.9 g
  LIVER: 9.6 g
  A/G: 0.9
  ALP: 2022.8 IU/L
  ALT: 50 IU/L
  AST: 81 IU/L
  BUN: 15.4 mg/dL
  CRE: 0.2 mg/dL
  Ca: 10.7 mg/dL
  Cl: 104.6 meq/L
  DBIL: 0.006 mg/dL
  GLC: 171.6 mg/dL
  IP: 7.9 mg/dL
  K: 4.3 meq/L
  LDH: 116.2 IU/L
  Na: 143 meq/L
  PL: 148.2 mg/dL
  RALB: 2.6 g/dL
  TBIL: 0.056 mg/dL
  TC: 76.4 mg/dL
  TG: 83 mg/dL
  TP: 5.6 g/dL
  gamma-GTP: 1 IU/L
[5]
  TERMINAL_BW: 212 g
  APTT: 16.8 s
  Bas: 0%
  Eos: 0.8%
  Fbg: 267.8 mg/dL
  Hb: 12.7 g/dL
  Ht: 38.3%
  Lym: 79.2%
  MCH: 21.5 pg
  MCHC: 33.2%
  MCV: 64.8 fL
  Mono: 2.4%
  Neu: 17%
  PT: 14 s
  Plat: 113.4 x10_4/uL
  RBC: 591.4 x10_4/ul
  Ret: 8.8%
  WBC: 80.3 x10_2/uL
  KIDNEY_L: 1 g
  KIDNEY_R: 0.9 g
  KIDNEY_TOTAL: 1.9 g
  LIVER: 9.1 g
  A/G: 0.9
  ALP: 1375.2 IU/L
  ALT: 39.6 IU/L
  AST: 70.6 IU/L
  BUN: 8.6 mg/dL
  CRE: 0.2 mg/dL
  Ca: 10.5 mg/dL
  Cl: 107.2 meq/L
  DBIL: 0.002 mg/dL
  GLC: 174.2 mg/dL
  IP: 8.8 mg/dL
  K: 4.2 meq/L
  LDH: 108 IU/L
  Na: 139.4 meq/L
  PL: 150.4 mg/dL
  RALB: 2.4 g/dL
  TBIL: 0.058 mg/dL
  TC: 84.2 mg/dL
  TG: 60.6 mg/dL
  TP: 5.2 g/dL
  gamma-GTP: 1 IU/L
[6]
  TERMINAL_BW: 209.4 g
  APTT: 16.1 s
  Bas: 0.2%
  Eos: 1.2%
  Fbg: 280.2 mg/dL
  Hb: 12.9 g/dL
  Ht: 38.9%
  Lym: 79.6%
  MCH: 21.1 pg
  MCHC: 33.1%
  MCV: 63.7 fL
  Mono: 1.6%
  Neu: 17%
  PT: 14.1 s
  Plat: 121.7 x10_4/uL
  RBC: 611.6 x10_4/ul
  Ret: 8.2%
  WBC: 94.3 x10_2/uL
  KIDNEY_L: 1 g
  KIDNEY_R: 0.9 g
  KIDNEY_TOTAL: 1.9 g
  LIVER: 8.5 g
  A/G: 0.9
  ALP: 1302 IU/L
  ALT: 31 IU/L
  AST: 66.8 IU/L
  BUN: 8.2 mg/dL
  CRE: 0.2 mg/dL
  Ca: 10.6 mg/dL
  Cl: 107.2 meq/L
  DBIL: 0 mg/dL
  GLC: 173.2 mg/dL
  IP: 9.4 mg/dL
  K: 4.1 meq/L
  LDH: 72 IU/L
  Na: 141 meq/L
  PL: 139.2 mg/dL
  RALB: 2.4 g/dL
  TBIL: 0.058 mg/dL
  TC: 80.2 mg/dL
  TG: 35.8 mg/dL
  TP: 5.2 g/dL
  gamma-GTP: 1.4 IU/L
[7]
  TERMINAL_BW: 209 g
  APTT: 15.6 s
  Bas: 0%
  Eos: 0.8%
  Fbg: 253.2 mg/dL
  Hb: 12.6 g/dL
  Ht: 37.9%
  Lym: 75.2%
  MCH: 21.4 pg
  MCHC: 33.4%
  MCV: 64.3 fL
  Mono: 1.8%
  Neu: 21.8%
  PT: 14.5 s
  Plat: 117.7 x10_4/uL
  RBC: 589.4 x10_4/ul
  Ret: 8%
  WBC: 81.5 x10_2/uL
  KIDNEY_L: 1 g
  KIDNEY_R: 1 g
  KIDNEY_TOTAL: 2 g
  LIVER: 8.2 g
  A/G: 0.9
  ALP: 1539.2 IU/L
  ALT: 29 IU/L
  AST: 65.4 IU/L
  BUN: 7.6 mg/dL
  CRE: 0.2 mg/dL
  Ca: 10.2 mg/dL
  Cl: 105.8 meq/L
  DBIL: 0 mg/dL
  GLC: 158.4 mg/dL
  IP: 10.3 mg/dL
  K: 3.8 meq/L
  LDH: 69.4 IU/L
  Na: 140.6 meq/L
  PL: 127.8 mg/dL
  RALB: 2.4 g/dL
  TBIL: 0.056 mg/dL
  TC: 67.4 mg/dL
  TG: 28.2 mg/dL
  TP: 5.1 g/dL
  gamma-GTP: 1.2 IU/L
[8]
  TERMINAL_BW: 215.3 g
  APTT: 17.7 s
  Bas: 0%
  Eos: 0.8%
  Fbg: 286.8 mg/dL
  Hb: 13.6 g/dL
  Ht: 40.5%
  Lym: 78%
  MCH: 21.1 pg
  MCHC: 33.6%
  MCV: 62.7 fL
  Mono: 2.6%
  Neu: 18.4%
  PT: 13.8 s
  Plat: 129.1 x10_4/uL
  RBC: 646.2 x10_4/ul
  Ret: 6.9%
  WBC: 101.5 x10_2/uL
  KIDNEY_L: 0.9 g
  KIDNEY_R: 1 g
  KIDNEY_TOTAL: 1.9 g
  LIVER: 9.7 g
  A/G: 0.9
  ALP: 1799.8 IU/L
  ALT: 49.4 IU/L
  AST: 82.2 IU/L
  BUN: 13 mg/dL
  CRE: 0.2 mg/dL
  Ca: 10.6 mg/dL
  Cl: 101.6 meq/L
  DBIL: 0.006 mg/dL
  GLC: 165.2 mg/dL
  IP: 7.4 mg/dL
  K: 3.9 meq/L
  LDH: 96.8 IU/L
  Na: 144 meq/L
  PL: 137.2 mg/dL
  RALB: 2.6 g/dL
  TBIL: 0.046 mg/dL
  TC: 75.6 mg/dL
  TG: 99.4 mg/dL
  TP: 5.6 g/dL
  gamma-GTP: 1 IU/L
